Where a name gives a salt, the structure may show the parent alone.
Legend:
human O-GlcNAcase = molecular target: T1, human O-GlcNAcase (Homo sapiens, UniProt O60502); assay: Determination of KI values for inhibition of O-GlcNAcase activity (fluorescence-based hOGA Ki); assay type: biochemical; conditions: purified human O-GlcNAcase 0.7 nM, 2 mM 4-Methylumbelliferyl N-acetyl-β-D-glucosaminide, pH 7.0, Cheng-Prusoff
T1 sequence (O60502 1-916): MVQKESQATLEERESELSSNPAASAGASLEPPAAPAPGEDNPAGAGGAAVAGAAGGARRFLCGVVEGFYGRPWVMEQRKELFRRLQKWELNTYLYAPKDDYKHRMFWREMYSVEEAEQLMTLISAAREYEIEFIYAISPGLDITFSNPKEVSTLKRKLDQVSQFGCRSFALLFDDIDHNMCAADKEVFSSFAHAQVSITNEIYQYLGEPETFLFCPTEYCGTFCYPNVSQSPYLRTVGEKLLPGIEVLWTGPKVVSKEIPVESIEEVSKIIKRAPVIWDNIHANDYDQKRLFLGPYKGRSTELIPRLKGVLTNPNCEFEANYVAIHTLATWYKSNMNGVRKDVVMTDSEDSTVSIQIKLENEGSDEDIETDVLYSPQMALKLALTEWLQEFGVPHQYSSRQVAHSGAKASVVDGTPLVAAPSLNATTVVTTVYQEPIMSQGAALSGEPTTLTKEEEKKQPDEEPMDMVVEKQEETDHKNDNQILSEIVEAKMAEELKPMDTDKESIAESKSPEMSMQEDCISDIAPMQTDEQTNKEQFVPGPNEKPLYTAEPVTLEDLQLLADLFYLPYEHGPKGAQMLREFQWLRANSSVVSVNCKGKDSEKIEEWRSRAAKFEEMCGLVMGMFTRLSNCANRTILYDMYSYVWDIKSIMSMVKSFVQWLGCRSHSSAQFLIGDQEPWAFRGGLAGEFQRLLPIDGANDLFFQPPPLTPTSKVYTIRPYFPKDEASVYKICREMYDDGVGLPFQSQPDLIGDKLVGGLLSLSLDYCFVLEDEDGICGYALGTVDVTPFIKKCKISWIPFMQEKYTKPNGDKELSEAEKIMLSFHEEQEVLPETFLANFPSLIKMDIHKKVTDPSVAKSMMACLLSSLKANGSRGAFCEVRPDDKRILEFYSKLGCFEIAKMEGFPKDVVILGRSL
Protocol: Experimental procedure for kinetic analyses: Enzymatic reactions were carried out in a reaction containing 50 mM NaH2PO4, 100 mM NaCl and 0.1% BSA (pH 7.0) using 2 mM 4-Methylumbelliferyl N-acetyl-β-D-glucosaminide dihydrate (Sigma M2133) dissolved in ddH2O, as a substrate. The amount of purified human O-GlcNAcase enzyme used in the reaction was 0.7 nM. Test compound of varying concentrations was added to the enzyme prior to initiation of the reaction. The reaction was performed at room temperature in a 96-well plate and was initiated with the addition of substrate. The production of fluorescent product was measured every 60 sec for 45 min with a Tecan Infinite M200 plate-reader with excitation at 355 nm and emission detected at […], with 4-Methylumbelliferone (Sigma M1381) used to produce a standard curve. The slope of product production was determined for each concentration of compound tested and plotted, using standard curve fitting algorithms for sigmoidal dose response curves. The values for a four parameter logistic curve fit of the data were determined.
KI values were determined using the Cheng-Prusoff equation; the Km of O-GlcNAcase for substrate was 0.2 mM.

[1] = Determination of apparent permeability (Papp), bi-directional transport in LLC-PK1 cells; assay type: in vitro ADME; conditions: pig, test compound 1 μM, t=3 h, average of A to B and B to A
Protocol: Bi-directional transport is evaluated in LLC-PK1 cells in order to determine apparent permeability (Papp). LLC-PK1 cells can form a tight monolayer and therefore can be used to assess vectorial transport of compounds from basolateral to apical (B→A) and from apical to basolateral (A→B).
To determine Papp, LLC-PK1 cells are cultured in 96-well transwell culture plates (Millipore). Solutions containing the test compounds (1 μM) are prepared in Hank's Balanced Salt Solution with 10 mM HEPES. Substrate solution (150 μL) is added to either the apical (A) or the basolateral (B) compartment of the culture plate, and buffer (150 μL) is added to the compartment opposite to that containing the compound. At t=3 h, 50 μL samples are removed from both sides of monolayers dosed with test compound and placed in 96 well plates, scintillant (200 μL) or internal standard (100 μL labetolol 1 μM) is added to the samples and concentration is determined by liquid scintillation counting in a MicroBeta Wallac Trilux scintillation counter (Perkin Elmer Life Sciences, Boston, Mass.) or by LCMS/MS (Applied Biosystems SCIEX API 5000 triple quadruple mass spectrometer). [^3H]Verapamil (1 μM) is used as the positive control. The experiment is performed in triplicate.
The apparent permeability, Papp, is calculated by the following formula for samples taken at t=3 h: […]

| Ki (human O-GlcNAcase) | Papp at 3 h, 1 μM [1] | SMILES |
| --- | --- | --- |
| 165 nM | – | CNC(=O)[C@H]1N[C@H](CO)[C@@H](O)[C@H](O)[C@@H]1O [(2S,3R,4S,5R,6R)-3,4,5-trihydroxy-6-(hydroxymethyl)-N-methylpiperidine-2-carboxamide (hydrochloride salt), reference compound] |
| 1470 nM | – | CNC(=O)[C@@H]1[C@@H](O)[C@@H](O)[C@H](O)[C@@H](CO)N1C [Example 1, (2S,3R,4S,5R,6R)-3,4,5-trihydroxy-6-(hydroxymethyl)-N,1-dimethylpiperidine-2-carboxamide hydrochloride] |
| 1810 nM | – | CNC(=O)[C@@H]1[C@@H](O)[C@@H](O)[C@H](O)[C@@H](CO)N1C/C=C/c1ccc(-c2ccccc2)cc1 [Example 2, (2S,3R,4S,5R,6R)-1-((E)-3-([1,1′-biphenyl]-4-yl)allyl)-3,4,5-trihydroxy-6-(hydroxymethyl)-N-methylpiperidine-2-carboxamide] |
| 9.4 nM | 3 ×10⁻⁶ cm/s | CNC(=O)[C@@H]1[C@@H](O)[C@@H](O)[C@H](O)[C@@H](CO)N1CCCc1ccc(-c2ccccc2)cc1 [Example 3, (2S,3R,4S,5R,6R)-1-(3-([1,1′-biphenyl]-4-yl)propyl)-3,4,5-trihydroxy-6-(hydroxymethyl)-N-methylpiperidine-2-carboxamide] |
| 3300 nM | – | CCNC(=O)[C@H]1N[C@H](CO)[C@@H](O)[C@H](O)[C@@H]1O [Example 4, (2S,3R,4S,5R,6R)-N-ethyl-3,4,5-trihydroxy-6-(hydroxymethyl)piperidine-2-carboxamide hydrochloride] |
| 1700 nM | – | CNC(=O)[C@@H]1[C@@H](O)[C@@H](O)[C@H](O)[C@@H](CO)N1CCCc1ccccc1 [Example 5, (2S,3R,4S,5R,6R)-3,4,5-trihydroxy-6-(hydroxymethyl)-N-methyl-1-(3-phenylpropyl)piperidine-2-carboxamide] |
| 2500 nM | – | CCNC(=O)[C@@H]1[C@@H](O)[C@@H](O)[C@H](O)[C@@H](CO)N1CCCc1ccccc1 [Example 6, (2S,3R,4S,5R,6R)-N-ethyl-3,4,5-trihydroxy-6-(hydroxymethyl)-1-(3-phenylpropyl)piperidine-2-carboxamide] |
| 252 nM | – | CNC(=O)[C@@H]1[C@@H](O)[C@@H](O)[C@H](O)[C@@H](CO)N1CCCCc1ccccc1 [Example 7, (2S,3R,4S,5R,6R)-3,4,5-trihydroxy-6-(hydroxymethyl)-N-methyl-1-(4-phenylbutyl)piperidine-2-carboxamide] |
| 620 nM | – | CNC(=O)[C@@H]1[C@@H](O)[C@@H](O)[C@H](O)[C@@H](CO)N1CCCCC(C)C [Example 8, (2S,3R,4S,5R,6R)-3,4,5-trihydroxy-6-(hydroxymethyl)-N-methyl-1-(5-methylhexyl)piperidine-2-carboxamide] |
